From US10597388B2, “Pyridazinone herbicides” (FMC CORPORATION, priority 2014, dated 2020)
Where two headings read alike, the source gives them in different places.

Key:
Format in all cases: in vivo
[1] = tested on: crabgrass, large (large crabgrass, Digitaria sanguinalis); experiment: Test A greenhouse herbicide test, pre- and postemergence; details: Digitaria sanguinalis, 240 h; for pest or weed control at 125 g/ha: 125 g ai/ha; for pest or weed control at 500 g/ha: 500 g ai/ha; for pest or weed control at 500 g/ha / pest or weed control at 1000 g/ha: 0 to 100 scale; for pest or weed control at 1000 g/ha: 1000 g ai/ha
How it was run: (§1)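 Seeds in loam–sand blend received a preemergence directed soil spray; plants at 2–10 cm, one- to two-leaf stage, received postemergence sprays. Compounds in a non-phytotoxic solvent with surfactant. After about 10 d in a greenhouse, injury rated visually versus untreated controls on a 0–100 scale (100 = complete control).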

[2] = tested on: momingglory (Ipomoea spp.); experiment: as above; details: Ipomoea, 240 h; for pest or weed control at 125 g/ha: 125 g ai/ha; for pest or weed control at 500 g/ha: 500 g ai/ha; for pest or weed control at 500 g/ha / pest or weed control at 1000 g/ha: 0 to 100 scale; for pest or weed control at 1000 g/ha: 1000 g ai/ha
How it was run: as §1

[3] = tested on: velvetleaf (Abutilon theophrasti); experiment: as above; details: Abutilon theophrasti, 240 h; for pest or weed control at 125 g/ha: 125 g ai/ha; for pest or weed control at 500 g/ha: 500 g ai/ha; for pest or weed control at 500 g/ha / pest or weed control at 1000 g/ha: 0 to 100 scale; for pest or weed control at 1000 g/ha: 1000 g ai/ha
How it was run: as §1

[4] = tested on: ALOMY, blackgrass (Alopecurus myosuroides); experiment: Test F mixtures with commercial herbicides, Post- or Pre-emergence; details: Table F3, Post-emergence, scale 0-100
Protocol: (§2) This test evaluated the effect of mixtures of Compound 1 or Compound 2 with various commercial herbicides on multiple plant species. Seeds of multiple plant species selected were planted into Sandy Loam soil and treated either Post-emergence or Pre-emergence with test chemicals formulated in a non-phytotoxic solvent mixture. Plants were grown in a greenhouse using supplemental lighting to maintain a photoperiod of approximately 16 h; daytime and nighttime temperatures were approximately 24-30 and 19-21° C., respectively. Balanced fertilizer was applied through the watering system. Treated plants and controls were maintained in a greenhouse for 20 d, after which time all species were compared to controls and visually evaluated. Plant response ratings summarized in Tables F1 through F4 and are based on a scale of 0 to 100 where 0 is no effect and 100 is complete control. A dash (-) response means no test result. Application rates (i.e. “Rate”) are expressed in grams of active ingredient per hectare (g a.i./ha). In the following tables KCHSC is kochia (Kochia scoparia), LOLMU in Italian Ryegrass (Lolium multiflorum), AMBEL is common ragweed (Ambrosia elatior), ECHCG is barnyardgrass (Echinochloa crus-galli), SETVI is giant foxtail (Setaria faberii), AMARE is redroot pigweed (Amaranthus retroflexus), ALOMY is blackgrass (Alopecurus myosuroides) and GALAP is galium (Galium aparine). “Obsd.” is observed effect. “Exp.” is expected effect calculated from Colby's Equation.
(§3) Colby's Equation was used to determine the herbicidal effects expected from the mixtures. Colby's Equation (Colby, S. R. “Calculating Synergistic and Antagonistic Responses of Herbicide Combinations,” Weeds, 15(1), pp 20-22 (1967)) calculates the expected additive effect of herbicidal mixtures, and for two active ingredients is of the form: Pa+b=Pa+Pb−(PaPb/100)
(§4) wherein Pa+b is the percentage effect of the mixture expected from additive contribution of the individual components:
(§5) Pa is the observed percentage effect of the first active ingredient at the same use rate as in the mixture, and
(§6) Pb is the observed percentage effect of the second active ingredient at the same use rate as in the mixture.

[5] = tested on: AMARE, redroot pigweed (Amaranthus retroflexus); experiment: as above; details: scale 0-100
Protocol: as §2, §3, §4, §5, §6

[6] = tested on: AMBEL, common ragweed (Ambrosia elatior); experiment: as above; details: scale 0-100
Protocol: as §2, §3, §4, §5, §6

[7] = tested on: ECHCG, barnyardgrass (Echinochloa crus-galli); experiment: as above; details: scale 0-100
Protocol: as §2, §3, §4, §5, §6

[8] = tested on: GALAP, galium (Galium aparine); experiment: as above; details: Table F3, Post-emergence, scale 0-100
Protocol: as §2, §3, §4, §5, §6

[9] = tested on: KCHSC, kochia (Kochia scoparia); experiment: as above; details: scale 0-100
Protocol: as §2, §3, §4, §5, §6

[10] = tested on: LOLMU, Italian Ryegrass (Lolium multiflorum); experiment: as above; details: scale 0-100
Protocol: as §2, §3, §4, §5, §6

[11] = tested on: SETVI, giant foxtail (Setaria faberii); experiment: as above; details: scale 0-100
Protocol: as §2, §3, §4, §5, §6

[12] = post-emergence, Postemergence, visual rating after approx. 10 d, 0 to 100 scale (0 no effect, 100 complete control), read-out: Plant response rating, Crabgrass, Large
[13] = post-emergence, Postemergence, 0 is no effect, 100 is complete control, read-out: Crabgrass, Large plant response rating
[14] = pre-emergence, Preemergence, 0 to 100 scale where 0 is no effect and 100 is complete control, read-out: Crabgrass, Large plant response rating
[15] = pre-emergence, Preemergence, 0 no effect, 100 complete control, read-out: Plant response rating, Crabgrass, Large
[16] = post-emergence, Postemergence, visual rating after approx. 10 d, 0 to 100 scale (0 no effect, 100 complete control), read-out: Plant response rating, Morningglory
[17] = post-emergence, Postemergence, 0 is no effect, 100 is complete control, read-out: Morningglory plant response rating
[18] = pre-emergence, Preemergence, 0 to 100 scale where 0 is no effect and 100 is complete control, read-out: Morningglory plant response rating
[19] = pre-emergence, Preemergence, 0 no effect, 100 complete control, read-out: Plant response rating, Morningglory
[20] = post-emergence, Postemergence, visual rating after approx. 10 d, 0 to 100 scale (0 no effect, 100 complete control), read-out: Plant response rating, Velvetleaf
[21] = post-emergence, Postemergence, 0 is no effect, 100 is complete control, read-out: Velvetleaf plant response rating
[22] = pre-emergence, Preemergence, 0 to 100 scale where 0 is no effect and 100 is complete control, read-out: Velvetleaf plant response rating
[23] = pre-emergence, Preemergence, 0 no effect, 100 complete control, read-out: Plant response rating, Velvetleaf
[24] = Pre-emergence, Rate 16 g a.i./ha
[25] = Pre-emergence, Rate 62 g a.i./ha
[26] = Table F3, Post-emergence, Rate 16 g a.i./ha
[27] = Table F3, Post-emergence, Rate 62 g a.i./ha

SMILES: Cc1cc(C)c2sc(C)c(-c3c(O)c(C)nn(C)c3=O)c2c1 [Compound 2, 5-hydroxy-2,6-dimethyl-4-(2,5,7-trimethylbenzo[b]thien-3-yl)-3(2H)-pyridazinone]
- pest or weed control at 125 g/ha [1, 12]: 50%
- pest or weed control at 500 g/ha [1, 13]: 70%
- pest or weed control at 125 g/ha [1, 14]: 90%
- pest or weed control at 500 g/ha [1, 15]: 100%
- pest or weed control at 125 g/ha [2, 16]: 100%
- pest or weed control at 500 g/ha [2, 17]: 100%
- pest or weed control at 125 g/ha [2, 18]: 80%
- pest or weed control at 500 g/ha [2, 19]: 100%
- pest or weed control at 125 g/ha [3, 20]: 100%
- pest or weed control at 500 g/ha [3, 21]: 100%
- pest or weed control at 125 g/ha [3, 22]: 80%
- pest or weed control at 500 g/ha [3, 23]: 90%
- ALOMY Obsd. ([4]; Rate 16 g a.i./ha): 20
- ALOMY Obsd. ([4]; Rate 62 g a.i./ha): 60
- AMARE Obsd. [5, 24]: 25
- AMARE Obsd. [5, 25]: 75
- AMARE Obsd. [5, 26]: 25
- AMARE Obsd. [5, 27]: 80
- AMBEL Obsd. [6, 24]: 30
- AMBEL Obsd. [6, 25]: 95
- AMBEL Obsd. [6, 26]: 40
- AMBEL Obsd. [6, 27]: 80
- ECHCG Obsd. [7, 24]: 0
- ECHCG Obsd. [7, 25]: 25
- ECHCG Obsd. [7, 26]: 5
- ECHCG Obsd. [7, 27]: 20
- GALAP Obsd. ([8]; Rate 16 g a.i./ha): 100
- GALAP Obsd. ([8]; Rate 62 g a.i./ha): 100
- KCHSC Obsd. [9, 24]: 0
- KCHSC Obsd. [9, 25]: 0
- KCHSC Obsd. [9, 26]: 50
- KCHSC Obsd. [9, 27]: 75
- LOLMU Obsd. [10, 24]: 0
- LOLMU Obsd. [10, 25]: 50
- LOLMU Obsd. [10, 26]: 75
- LOLMU Obsd. [10, 27]: 95
- SETVI Obsd. [11, 24]: 60
- SETVI Obsd. [11, 25]: 98
- SETVI Obsd. [11, 26]: 15
- SETVI Obsd. [11, 27]: 80

SMILES: Cc1nn(C)c(=O)c(-c2c(C)oc3cccc(C)c23)c1O [Compound 8, 4-(2,4-dimethyl-3-benzofuranyl)-5-hydroxy-2,6-dimethyl-3(2H)-pyridazinone]
- pest or weed control at 125 g/ha [1, 12]: 0%
- pest or weed control at 500 g/ha [1, 13]: 30%
- pest or weed control at 125 g/ha [1, 14]: 10%
- pest or weed control at 500 g/ha [1, 15]: 60%
- pest or weed control at 125 g/ha [2, 16]: 0%
- pest or weed control at 500 g/ha [2, 17]: 10%
- pest or weed control at 125 g/ha [2, 18]: 0%
- pest or weed control at 500 g/ha [2, 19]: 0%
- pest or weed control at 125 g/ha [3, 20]: 60%
- pest or weed control at 500 g/ha [3, 21]: 60%
- pest or weed control at 125 g/ha [3, 22]: 0%
- pest or weed control at 500 g/ha [3, 23]: 30%

SMILES: CCc1oc2ccc(C)cc2c1-c1c(O)c(C)nn(C)c1=O [Compound 10, 4-(2-ethyl-5-methyl-3-benzofuranyl)-5-hydroxy-2,6-dimethyl-3(2H)-pyridazinone]
- pest or weed control at 1000 g/ha [1, 13]: 70%
- pest or weed control at 1000 g/ha [1, 15]: 90%
- pest or weed control at 1000 g/ha [2, 17]: 100%
- pest or weed control at 1000 g/ha [2, 19]: 90%
- pest or weed control at 1000 g/ha [3, 21]: 100%
- pest or weed control at 1000 g/ha [3, 23]: 90%

SMILES: Cc1nn(C)c(=O)c(-c2cccc3ccccc23)c1O [Compound 11, 5-hydroxy-2,6-dimethyl-4-(1-naphthalenyl)-3(2H)-pyridazinone]
- pest or weed control at 1000 g/ha [1, 13]: 70%
- pest or weed control at 1000 g/ha [1, 15]: 80%
- pest or weed control at 1000 g/ha [2, 17]: 90%
- pest or weed control at 1000 g/ha [2, 19]: 90%
- pest or weed control at 1000 g/ha [3, 21]: 100%
- pest or weed control at 1000 g/ha [3, 23]: 80%
